From the NIST ThermoML archive (doi:10.1021/acs.jced.8b00966)
Numbers after ± are expanded uncertainties. Blank lines part the entries; values can stand above or below the compound they belong to.

Settings: Liquid, Ebulliometric method (Recirculating still)

vapor or sublimation pressure (373.35 K): 101.3 ± 3 kPa
SMILES: CC1CCCCC1 [methylcyclohexane]

vapor or sublimation pressure (439.15 K): 101.3 ± 3 kPa
SMILES: CC(C)(CO)CCl [3-chloro-2,2-dimethyl-1-propanol]

vapor or sublimation pressure (352.8 K): 101.3 ± 3 kPa
SMILES: CC1(C)COC1 [3,3-dimethyloxetane]
